Measurements reported in ChEMBL document CHEMBL1127880, “1H-1,2,4-triazole angiotensin II receptor antagonists: N-phenylpyridinylmethyl and N-pyridinylphenylmethyl analogs of SC-50560” (Bioorg Med Chem Lett, 1994).

Legend:
Angiotensin II receptor = molecular target: T1, Angiotensin II receptor (Rattus norvegicus, UniProt P29089+P25095+P35351); test: Tested in vitro for inhibition of [125I]AII to rat uterine membranes; type: cell membranes, Membrane
T1 sequence (P29089 whole entry): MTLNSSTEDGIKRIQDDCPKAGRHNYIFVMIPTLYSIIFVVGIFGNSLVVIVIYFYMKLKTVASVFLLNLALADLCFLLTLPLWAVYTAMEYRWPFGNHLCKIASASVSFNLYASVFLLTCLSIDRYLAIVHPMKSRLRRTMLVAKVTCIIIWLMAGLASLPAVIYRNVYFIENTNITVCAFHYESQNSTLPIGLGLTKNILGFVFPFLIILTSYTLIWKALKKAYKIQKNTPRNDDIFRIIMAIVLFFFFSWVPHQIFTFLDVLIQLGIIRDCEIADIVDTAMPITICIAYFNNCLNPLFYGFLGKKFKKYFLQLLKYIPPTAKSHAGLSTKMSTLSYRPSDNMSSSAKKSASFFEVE
T1 sequence (P25095 whole entry): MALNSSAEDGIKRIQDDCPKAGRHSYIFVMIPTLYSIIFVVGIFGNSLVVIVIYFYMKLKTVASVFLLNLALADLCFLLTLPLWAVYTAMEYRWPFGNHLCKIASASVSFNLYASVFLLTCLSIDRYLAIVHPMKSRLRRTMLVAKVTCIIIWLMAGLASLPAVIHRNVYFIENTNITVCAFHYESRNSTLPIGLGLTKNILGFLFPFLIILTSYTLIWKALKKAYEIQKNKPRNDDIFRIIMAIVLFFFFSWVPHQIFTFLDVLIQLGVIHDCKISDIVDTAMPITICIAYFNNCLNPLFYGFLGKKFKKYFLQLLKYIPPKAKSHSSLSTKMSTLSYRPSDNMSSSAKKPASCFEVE
T1 sequence (P35351 whole entry): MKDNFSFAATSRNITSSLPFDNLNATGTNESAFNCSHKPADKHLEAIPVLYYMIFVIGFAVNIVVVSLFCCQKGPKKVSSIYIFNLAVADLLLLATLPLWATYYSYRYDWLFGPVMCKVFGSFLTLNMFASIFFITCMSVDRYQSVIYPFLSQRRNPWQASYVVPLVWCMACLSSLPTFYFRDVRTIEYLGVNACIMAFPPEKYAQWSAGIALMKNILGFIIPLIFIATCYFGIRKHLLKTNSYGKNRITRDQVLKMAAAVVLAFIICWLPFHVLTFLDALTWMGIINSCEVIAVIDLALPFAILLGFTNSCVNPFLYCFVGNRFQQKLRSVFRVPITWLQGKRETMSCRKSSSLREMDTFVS

Oryctolagus cuniculus = species: Oryctolagus cuniculus; test: Evaluated for antagonism of AII contracted rabbit aortic rings; type: functional; details: Aorta, read-out: pA2 (converted)

Compound	IC50 (Angiotensin II receptor) [nM]	Kb (Oryctolagus cuniculus) [nM]
CCCCc1nc(CCCC)n(Cc2ccc(-c3cnccc3-c3nn[nH]n3)cc2)n1	150	63.1
CCCCc1nc(CCCC)n(Cc2ccc(-c3cccnc3-c3nn[nH]n3)cc2)n1	110	126
CCCCc1nc(CCCC)n(Cc2ccc(-c3ncccc3-c3nn[nH]n3)cc2)n1	98	158
CCCCc1nc(CCCC)n(Cc2ccc(-c3ccncc3-c3nn[nH]n3)cc2)n1	250	
CCCCc1nc(CCCC)n(Cc2ccc(-c3ccccc3-c3nn[nH]n3)cn2)n1		10
